Earlier results on one molecule are cited in patent EP4286484B1, “AQUEOUS PRETREATMENT LIQUID, INK SET, PRINTED ITEM, AND SEPARATION METHOD” (priority 2022, dated 2023).

For this data set the following is noted: anhydrous calcium salt of the named counter anion.

For `O=C([O-])c1ccccc1.O=C([O-])c1ccccc1.[Ca+2]` [benzoate ion], the “solubility of the corresponding anhydrous calcium salt in 100 g of water at 20°C” value is given as 2 g.
